Reference: patent US20050096370A1, “Method for inhibiting tumor angiogenesis and tumor growth” (Bizbiotech Co., Ltd., priority 2003, published 2005)

Columns and labels:
[1] = test system: Hep3B hepatoma; assay: Hep3B hepatoma xenograft tumor growth in nude mice; assay type: in vivo; details: P<0.001 versus vehicle
Method: (§1) Male nude mice were injected subcutaneously in the flank with 5×10^6 viable Hep3B hepatoma (A), NCI-H87 gastric carcinoma (B), SiHa cervical carcinoma (C), SK-N-MC neuroblastoma (E), or Caki-I renal carcinoma (F) cells. […] Tumor size was measured over time. […] Differences between tumor sizes in the vehicle- and YC-1-treated groups for mice with Hep3B tumors were compared using ANOVA and Duncan's multiple range tests. * denotes P<0.001 relative to the control. Differences between tumor sizes in the vehicle and YC-1-treated groups for mice with other tumors (B-E) were compared using a Mann-Whitney U test. Each number beneath the error bar represents the P value of the difference relative to the control.
(§2) Male nude (BALB/cAnNC˜-nu/nu) mice were purchased from Charles River Japan Inc. (Shin-Yokohama, JAPAN). The animals were housed in a specific pathogen-free room under controlled temperature and humidity. All animal procedures were performed according to the established procedures of the Seoul National University Laboratory Animal Maintenance Manual. Eighty mice aged 7-8 weeks were injected with tumor cells for the xenograft experiments. […]
(§3) Tumors were measured every 2 or 3 days with calipers in two dimensions and the tumor volumes were calculated using the formula: Volume=axb2/2, where a is the width at the widest point of the tumor and h is the width perpendicular to a. […]

[2] = test system: Caki-1 renal carcinoma; assay: Caki-1 renal carcinoma xenograft tumor growth in nude mice; assay type: in vivo; details: YC-1 30 μg/g daily i.p. 2 weeks, P<0.01
Method: as §1, §2, §3

OCc1ccc(-c2nn(Cc3ccccc3)c3ccccc23)o1 [YC-1, 3-(5′-hydroxymethyl-2′-furyl)-1-benzylindazole]
tumor volume, mean, last day of experiment ([1]; YC-1 30 μg/g daily i.p. for 2 weeks after tumors established (100-150 mm^3)): 126 mm^3 | tumor volume, mean, last day of experiment ([1]; YC-1 daily i.p. for 2 weeks, started the day after tumor cell injection): 422 mm³ | tumor size versus vehicle [2]: statistically significantly smaller
